48 molecules from article PMC5607274, “An iterative compound screening contest method for identifying target protein inhibitors using the tyrosine-protein kinase Yes” (Scientific Reports, 2017) can be followed below.

The structures appear in SMILES notation.

T1 sequence (P07947 2-543): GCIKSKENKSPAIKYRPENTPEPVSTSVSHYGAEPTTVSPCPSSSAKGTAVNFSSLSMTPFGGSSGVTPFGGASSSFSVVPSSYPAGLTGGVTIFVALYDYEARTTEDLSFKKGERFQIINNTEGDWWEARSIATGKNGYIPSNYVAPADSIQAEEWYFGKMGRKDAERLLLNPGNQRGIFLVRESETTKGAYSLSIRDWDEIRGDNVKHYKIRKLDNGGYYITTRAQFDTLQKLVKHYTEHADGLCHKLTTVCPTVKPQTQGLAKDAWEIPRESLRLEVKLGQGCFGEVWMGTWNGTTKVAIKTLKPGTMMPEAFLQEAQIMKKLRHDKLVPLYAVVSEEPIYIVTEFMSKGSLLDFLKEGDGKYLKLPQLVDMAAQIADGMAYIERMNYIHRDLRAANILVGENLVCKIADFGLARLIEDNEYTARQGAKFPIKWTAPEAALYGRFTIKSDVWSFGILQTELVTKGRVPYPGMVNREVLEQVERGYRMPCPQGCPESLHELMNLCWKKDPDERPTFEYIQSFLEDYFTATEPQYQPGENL

This assay has as its target T1, human recombinant Yes [a.a. 2–543 (end)] (Homo sapiens, UniProt P07947).
T1 construct: human recombinant Yes [a.a; 2–543 (end)]; purchased BPS Bioscience 40488
Description: ADP-Glo kinase assay, inhibition rates of Yes phosphorylation activity (first and second screening). It counts as biochemical. The conditions noted are these: first screening; mean of n = 4 wells; 10 μmol L−1 compound. The procedure, abridged:
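ADP-Glo luminescence measured inhibition of human recombinant Yes (a.a. 2–543) phosphorylation activity. In the first screen, each compound ran in 4 wells and inhibition rates were averaged. The second screen retested hits as compounds dissolved from fresh powder.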
(In general: ADP-Glo turns the ADP formed in a reaction into a luminescent signal.)
For `O=C(CCNC(=O)c1cccs1)Nc1ccc2nc(-c3cccc(F)c3)[nH]c2c1` [Compound Z594945904], the “First screening IR (inhibition rate)” value is given as -4%. Regarding `CC(C)CCn1c(CN2CCN(Cc3ccco3)CC2)nc2c1c(=O)[nH]c(=O)n2Cc1ccccc1` [Compound Z195914778], the “First screening IR (inhibition rate)” value was -3%. In the case of `CC(SCc1nc(N)nc(N(C)C)n1)C(=O)Nc1ccc(F)cc1` (stereo not drawn) [Compound Z232651902] it was -3%; in that of `Cc1cnn(-c2cccc(N3CCOC(c4ccc(F)cc4)C3)n2)c1` (stereo not drawn) [Compound Z1430532131], 0%; in that of `Cc1ccc(-c2c(C)sc3nc(CN4CCN(CC(=O)N5CCCCCC5)CC4)[nH]c(=O)c23)cc1` [Compound Z126044810], -3%. Consider `CN1CCC(N(C)c2ccc(NC(=O)c3c(O)cc(F)cc3F)cc2)CC1` [Compound Z910632940], for which the “First screening IR (inhibition rate)” value was 6%. The value for `CCN(C1CCS(=O)(=O)C1)S(=O)(=O)c1c(C)c(C)c(C)c(C)c1C` (stereo not drawn) [Compound Z45467174] was 8%; that for `COC(=O)c1cc(CSc2n[nH]c(-c3ccccc3)n2)oc1C` [Compound Z25398505] was 1%; that for `CC(=O)N1CCc2cc(NC(=O)c3ccccc3SCc3cn4ccccc4n3)ccc21` [Compound Z285525778] was -11%. In the case of `CCC(C)CS(=O)(=O)N(C)CC` (stereo not drawn) [Compound Z1193464552], the “First screening IR (inhibition rate)” value was -7%. The value for `CCCCc1ccc(NC(=S)N2CC3(C)CC2CC(C)(C)C3)cc1` (stereo not drawn) [Compound Z45795780] was -6%; that for `COc1ccc(C(N)=O)c(OCc2nc3ccccc3nc2C)c1` [Compound Z26325749] was 35%. In the case of `O=S(=O)(c1ccccc1Cl)N1CCN(Cc2cn3ccccc3n2)CC1` [Compound Z89155296] it was 15%.

As for `O=C(c1ccc(OCC2CC2)cc1)N1CCC(c2nnc3n2CCC3)CC1` [Compound Z809056560], the “First screening IR (inhibition rate)” value turned out to be 2%. With `Fc1ccc(-n2cc(-c3ccccc3)c3c(N4CCOCC4)ncnc32)cc1` [Compound Z57455467], the “First screening IR (inhibition rate)” value was determined as 5%.

Turning to `Cc1ccccc1Nc1nc(N)nc(CSc2ccccc2Cl)n1` [Compound Z18459341], the “First screening IR (inhibition rate)” value turned out to be 17%. In the case of `CC(C)c1nc2n(n1)CC(NC(=O)Nc1cc(-c3ccccc3)ns1)CC2` (stereo not drawn) [Compound Z1327803154] it was 17%; in that of `Cc1cn2c3c(=O)n(CCN4CCCCC4)c(=O)n(C)c3nc2n1-c1ccc(Oc2ccccc2)cc1` [Compound Z247616328], 11%. `O=C1Cc2cc(Nc3nccc(C(F)(F)F)n3)ccc2N1` [Compound Z1199266078]: the “First screening IR (inhibition rate)” value was determined as 13%.

With `COc1ccc(NC(=O)c2c(Nc3ccc(OC(F)F)cc3)sc(C(=O)Nc3ccc4c(c3)OCO4)c2N)cc1Cl` [Compound Z56918070], the “First screening IR (inhibition rate)” value was 16%. The value for `O=C(Nc1cc(-c2cccc([N+](=O)[O-])c2)sc1C(=O)O)c1ccc2c(c1)OCCO2` [Compound Z204342356] was -1%; that for `O=C(NCCOc1ccc(Cl)cc1)c1ccc2nc[nH]c2c1` [Compound Z73381327] was 12%. The value for `CC(C)n1ncc2c(C(=O)O)cc(-c3ccc4c(c3)OCCO4)nc21` [Compound Z56643642] was 2%. Consider `COc1cc(NC(=O)c2ccccc2)c(OC)cc1NC(=O)COc1ccc(-c2nnco2)cc1` [Compound Z62746884], for which the “First screening IR (inhibition rate)” value is 46%.

On to `FC(F)(F)c1ccnc(Nc2ccc3nc(C4CC4)sc3c2)n1` [Compound Z929767438], for which the “First screening IR (inhibition rate)” value was -3%.

As for `Cc1cc(NCc2nnc(C)n2C)c(C(N)=O)cc1F` [Compound Z1618388683], the “First screening IR (inhibition rate)” value is listed as -35%. As for `Cc1noc(C)c1S(=O)(=O)N1CCN(C(=O)CCc2c(C)[nH]c(=O)c(C#N)c2C)CC1` [Compound Z115241120], the “First screening IR (inhibition rate)” value is reported as 12%. In the case of `Cc1cccn2cc(-c3ccc(NC(=O)c4ccc(=O)[nH]c4)cc3)nc12` [Compound Z666279820] it was -9%; in that of `CCN(CC)S(=O)(=O)c1ccc(S(=O)(=O)N(C)C(C)C)cc1` [Compound Z45539789], 11%. The value for `Cc1nc2c(cc1C(=O)NCCNc1ccccc1[N+](=O)[O-])c(C)nn2C` [Compound Z355820588] was -9%. The value for `Cc1ccccc1CN1CCN(CC(=O)c2cc(C)n(CC3CCCO3)c2C)CC1` (stereo not drawn) [Compound Z105957250] was 15%. Take `CC(Sc1n[nH]c(-c2ccccc2)n1)C(=O)c1c[nH]c2ccccc12` (stereo not drawn) [Compound Z25398193]: the “First screening IR (inhibition rate)” value came to 49%. Turning to `CC(C)c1nnc(CNC(C)(C)c2ccc(Cl)cc2)o1` [Compound Z1120830695], the “First screening IR (inhibition rate)” value is on record as 17%. In the case of `Cc1ccccc1-n1c(SCC(=O)Nc2ccc(N3CCOCC3)cc2)nnc1-c1ccncc1` [Compound Z19446050] it was -3%; in that of `Clc1ccc(C2=NN/C(=N/c3ccccn3)SC2)s1` [Compound Z1446648080], 8%; in that of `O=[N+]([O-])c1ccc(Nc2cccc(N3CCCC3)c2)c([N+](=O)[O-])c1` [Compound Z729847414], 20%. Consider `Cc1nnc(COC(=O)c2cc(-c3ccccc3)nc3c2cnn3C(C)C)o1` [Compound Z51550903], for which the “First screening IR (inhibition rate)” value is recorded as -3%. The value for `CCCCCNS(=O)(=O)CCS(C)(=O)=O` [Compound Z1262455598] was -9%; that for `CCN(CC)CCC1S(=O)(=O)CC(c2ccccc2)CS1(=O)=O` (stereo not drawn) [Compound Z56768715] was 8%. For `Nc1ncnc2sc3c(c12)CCN(C(=O)c1ccc2c(c1)CCC2)C3` [Compound Z168757250], the “First screening IR (inhibition rate)” value came to 4%. The value for `CC(C)CNC(=O)c1c(N)n(CCc2ccccc2)c2nc3ccccc3nc12` [Compound Z1033301058] was -2%; that for `COc1cc2cc(C3CC(C4CC4)=NN3C(C)=O)c(Cl)nc2cc1OC` (stereo not drawn) [Compound Z431511574] was -6%.

Take `COC1CCC(N(C)c2ncc(C(=O)N3CCOCC3)cc2Cl)CC1` (stereo not drawn) [Compound Z1212734184]: the “First screening IR (inhibition rate)” value is on record as -2%.

Consider `Cc1cc(C)c(NC(=O)C2CCN(c3ncnc4sc(C)c(C)c34)CC2)c(C)c1` [Compound Z57042877], for which the “First screening IR (inhibition rate)” value is 0%. Take `Cn1c(CNS(=O)(=O)c2ccc(C(F)(F)F)cc2)nc2ccccc21` [Compound Z90694917]: the “First screening IR (inhibition rate)” value is -18%. For the molecule `Cl.Fc1cccc(F)c1-c1cc(-c2ccccc2)c2ccccc2n1` [Compound Z48951059], the “First screening IR (inhibition rate)” value worked out at 4%. In the case of `CC(C)c1noc2nc(-c3ccncc3)cc(C(=O)O)c12` [Compound Z56646434] it was -2%.

Take `Cc1cc(Br)c(O)c(C(=O)NCCC(=O)N2CCOCC2)c1` [Compound Z596098802]: the “First screening IR (inhibition rate)” value is 7%.
